Experimental data: paper PMC4413193, “3-[4-(1H-Indol-3-yl)-1,3-thiazol-2-yl]-1H-pyrrolo[2,3-b]pyridines, Nortopsentin Analogues with Antiproliferative Activity” (Marine Drugs, 2015)

Experiments:
[1] = system: K-562; assay: NCI-60 in vitro tumor cell growth inhibition, K-562 (leukemia); type: cell-based; conditions: Homo sapiens, K562, five concentration levels 10^−4–10^−8 M
Procedure: (§1) All the synthesized thiazoles 3a–k were evaluated by the National Cancer Institute (Bethesda MD) for cytotoxicity against the NCI-60 cell line panel using standard protocols. Initially, the selected derivatives 3c,d,g,h,j,k were tested at a single dose (10^−5 M) on the full panel of approximately 60 human tumor cell lines derived from 9 human cancer cell types, that have been grouped in disease sub-panels including leukemia, non-small-cell lung, colon, central nervous system (CNS), melanoma, ovarian, renal, prostate and breast cancers (data not shown). Compounds 3d and 3k were further selected for full evaluation at five concentration levels (10^−4–10^−8 M).
(§2) The antitumor activity of compounds 3d and 3k was given by three parameters for each cell line: GI50 (the molar concentration of the compound that inhibits 50% net cell growth), TGI (the molar concentration of the compound leading to total inhibition of net cell growth), and LC50 (the molar concentration of the compound that induces 50% net cell death). The average values of mean graph midpoint (MG_MID) were calculated for each of these parameters.

[2] = system: HCC-2998; assay: NCI-60 in vitro tumor cell growth inhibition, HCC-2998 (colon cancer); type: cell-based; conditions: Homo sapiens, five concentration levels
Procedure: as §1, §2

[3] = system: PC-3; assay: NCI-60 in vitro tumor cell growth inhibition, PC-3 (prostate cancer); type: cell-based; conditions: Homo sapiens, five concentration levels
Procedure: as §1, §2

[4] = system: SN12C; assay: NCI-60 in vitro tumor cell growth inhibition, SN12C (renal cancer); type: cell-based; conditions: Homo sapiens, five concentration levels
Procedure: as §1, §2

[5] = system: SF-539; assay: NCI-60 in vitro tumor cell growth inhibition, SF-539 (CNS cancer); type: cell-based; conditions: Homo sapiens, five concentration levels
Procedure: as §1, §2

[6] = system: SNB-75; assay: NCI-60 in vitro tumor cell growth inhibition, SNB-75 (CNS cancer); type: cell-based; conditions: Homo sapiens, five concentration levels
Procedure: as §1, §2

[7] = system: HT29; assay: NCI-60 in vitro tumor cell growth inhibition, HT29 (colon cancer); type: cell-based; conditions: Homo sapiens, HT-29, five concentration levels
Procedure: as §1, §2

[8] = system: HCT-116; assay: NCI-60 in vitro tumor cell growth inhibition, HCT-116 (colon cancer); type: cell-based; conditions: Homo sapiens, five concentration levels
Procedure: as §1, §2

[9] = system: OVCAR-5; assay: NCI-60 in vitro tumor cell growth inhibition, OVCAR-5 (ovarian cancer); type: cell-based; conditions: Homo sapiens, five concentration levels
Procedure: as §1, §2

[10] = system: UACC-257; assay: NCI-60 in vitro tumor cell growth inhibition, UACC-257 (melanoma); type: cell-based; conditions: Homo sapiens, five concentration levels
Procedure: as §1, §2

[11] = system: M14; assay: NCI-60 in vitro tumor cell growth inhibition, M14 (melanoma); type: cell-based; conditions: Homo sapiens, five concentration levels
Procedure: as §1, §2

[12] = system: HepG2 cells; assay: Cell cycle analysis by flow cytometry (PI staining); type: cell-based, human; conditions: HepG2, 24 h treatment
Procedure: The distribution of HepG2 cells in the cell cycle phases after 24 h treatment with the two norptopsentin analogues, was assessed by flow cytometric analysis after staining of DNA with PI.
Cell cycle stage was analyzed by flow cytometry. Aliquots of 1 × 10^6 cells were harvested by centrifugation, washed with PBS and incubated in the dark in a PBS solution containing 20 μg/mL propidium iodide (PI) and 200 μg/mL RNase, for 30 min, at room temperature. Then samples were subjected to fluorescence-activated cell sorting (FACS) analysis by Epics XL™ flow cytometer using Expo32 software (Beckman Coulter, Fullerton, CA, USA). At least 1 × 10^4 cells were analyzed for each sample.

[13] = system: KM12; assay: NCI-60 in vitro tumor cell growth inhibition, KM12 (colon cancer); type: cell-based; conditions: Homo sapiens, five concentration levels
Procedure: as §1, §2

[14] = system: NCI-H460; assay: NCI-60 in vitro tumor cell growth inhibition, NCI-H460 (non-small cell lung cancer); type: cell-based; conditions: Homo sapiens, five concentration levels
Procedure: as §1, §2

[15] = system: A498; assay: NCI-60 in vitro tumor cell growth inhibition, A498 (renal cancer); type: cell-based; conditions: Homo sapiens, five concentration levels
Procedure: as §1, §2

[16] = system: DU-145; assay: NCI-60 in vitro tumor cell growth inhibition, DU-145 (prostate cancer); type: cell-based; conditions: Homo sapiens, five concentration levels
Procedure: as §1, §2

[17] = system: SK-MEL-5; assay: NCI-60 in vitro tumor cell growth inhibition, SK-MEL-5 (melanoma); type: cell-based; conditions: Homo sapiens, five concentration levels
Procedure: as §1, §2

[18] = system: OVCAR-8; assay: NCI-60 in vitro tumor cell growth inhibition, OVCAR-8 (ovarian cancer); type: cell-based; conditions: Homo sapiens, five concentration levels
Procedure: as §1, §2

[19] = system: HepG2 cells; assay: Phosphatidylserine exposure, Annexin V-FITC/PI flow cytometry; type: cell-based, human; conditions: HepG2, 24 h, at GI50 values
Procedure: Apoptosis induction by 3d and 3k in HepG2 cells was investigated by externalization of plasma membrane phosphatidylserine and changes of mitochondrial transmembrane potential.
The apoptosis-induced PS externalization to the cell surface was measured by flow cytometry by double staining with Annexin V-Fluorescein isothiocyanate (Annexin V-FITC)/propidium iodide (PI). Annexin V binding to phosphatidylserine is used to identify the earliest stage of apoptosis. […] HepG2 cells were seeded in triplicate in 24-wells culture plates at a density of 2.0 × 10^5 cells/cm^2. After an overnight incubation, cells were washed with fresh medium and incubated with the compounds in RPMI. After 24 h, cells were harvested by trypsinization and adjusted at 2.0 × 10^5 cells/mL with combining buffer. One hundred μL of cell suspended solution was added to a new tube, and incubated with 5 µL annexin V and 10 μL of a 20 μg/mL PI solution at room temperature in the dark for 15 min. Then at least 1.0 × 10^4 cells were immediately subjected to FACS analysis using appropriate 2-bidimensional gating method.

[20] = system: UO-31; assay: NCI-60 in vitro tumor cell growth inhibition, UO-31 (renal cancer); type: cell-based; conditions: Homo sapiens, five concentration levels
Procedure: as §1, §2

[21] = system: BT-549; assay: NCI-60 in vitro tumor cell growth inhibition, BT-549 (breast cancer); type: cell-based; conditions: Homo sapiens, five concentration levels
Procedure: as §1, §2

[22] = system: LOX IMVI; assay: NCI-60 in vitro tumor cell growth inhibition, LOX IMVI (melanoma); type: cell-based; conditions: Homo sapiens, five concentration levels
Procedure: as §1, §2

[23] = system: OVCAR-3; assay: NCI-60 in vitro tumor cell growth inhibition, OVCAR-3 (ovarian cancer); type: cell-based; conditions: Homo sapiens, five concentration levels
Procedure: as §1, §2

[24] = system: COLO-205; assay: NCI-60 in vitro tumor cell growth inhibition, COLO-205 (colon cancer); type: cell-based; conditions: Homo sapiens, five concentration levels
Procedure: as §1, §2

Question: What does the source list for Cn1cc(-c2csc(-c3cn(C)c4ncccc34)n2)c2ccccc21 [Compound 3d, 1-Methyl-3-[4-(1-methyl-1H-indol-3-yl)-1,3-thiazol-2-yl]-1H-pyrrolo[2,3-b]pyridine]?
Answer: GI50 [1]: 70 nM; GI50 [2]: 1130 nM; GI50 [3]: 460 nM; GI50 [4]: 12.1 µM; GI50 [5]: 180 nM; GI50 [6]: 160 nM; GI50 [7]: 250 nM; GI50 [8]: 370 nM; GI50 [9]: 1410 nM; GI50 [10]: 13 µM; GI50 [11]: 270 nM; distribution of HepG2 cells in the cell cycle phases [12]: significant dose-dependent decrease in the percentage of cells in the G0/G1 and S phases, accompanied by a concomitant percentage increase of cells in the G2/M phase, and appearance of a subG1-cell population; GI50 [13]: 210 nM; GI50 [14]: 300 nM; GI50 [15]: 500 nM; GI50 [16]: 390 nM; GI50 [17]: 240 nM; GI50 [18]: 660 nM; apoptosis induction, externalized phosphatidylserine [19]: high percentage of cells in early apoptosis; GI50 [20]: 900 nM; GI50 [21]: 470 nM; GI50 [22]: 540 nM; GI50 [23]: 100 nM; GI50 [24]: 190 nM

Question: How did the GI50 [1] turn out when Cn1cc(-c2nc(-c3c[nH]c4ccccc34)cs2)c2cccnc21 [Compound 3k, 3-[4-(1H-Indol-3-yl)-1,3-thiazol-2-yl]-1-methyl-1H-pyrrolo[2,3-b]pyridine] was run?
Answer: 120 nM

Question: What about the GI50 [2] of the same compound?
Answer: 1180 nM

Question: And the GI50 [3]?
Answer: 560 nM

Question: What about the GI50 [4] of the same compound?
Answer: 5.48 µM

Question: And the GI50 [5]?
Answer: 250 nM

Question: What about the GI50 [6] of the same compound?
Answer: 140 nM

Question: And the GI50 [7]?
Answer: 190 nM

Question: And the GI50 [8]?
Answer: 390 nM

Question: And the GI50 [9]?
Answer: 2390 nM

Question: What about the GI50 [10] of the same compound?
Answer: 14.2 µM

Question: What about the GI50 [11] of the same compound?
Answer: 280 nM

Question: And the “distribution of HepG2 cells in the cell cycle phases” value [12]?
Answer: significant dose-dependent decrease in the percentage of cells in the G0/G1 and S phases, accompanied by a concomitant percentage increase of cells in the G2/M phase, and appearance of a subG1-cell population

Question: What about the GI50 [13] of the same compound?
Answer: 400 nM

Question: And the GI50 [14]?
Answer: 370 nM

Question: What about the GI50 [15] of the same compound?
Answer: 370 nM

Question: And the GI50 [16]?
Answer: 560 nM

Question: And the GI50 [17]?
Answer: 270 nM

Question: What about the GI50 [18] of the same compound?
Answer: 820 nM

Question: What about the “apoptosis induction, externalized phosphatidylserine” value [19] of the same compound?
Answer: high percentage of cells in early apoptosis

Question: And the GI50 [20]?
Answer: 690 nM

Question: What about the GI50 [21] of the same compound?
Answer: 440 nM

Question: And the GI50 [22]?
Answer: 510 nM

Question: And the GI50 [23]?
Answer: 250 nM

Question: What about the GI50 [24] of the same compound?
Answer: 190 nM
